In ChEMBL document CHEMBL2424615, “Design, synthesis, and characterization of novel tetrahydropyran-based bacterial topoisomerase inhibitors with potent anti-gram-positive activity” (J Med Chem, 2013):

Experiments:
Streptococcus pneumoniae = test: Antibacterial activity against wild type Streptococcus pneumoniae ATCC 49619 assessed as growth inhibition by broth microdilution method; assay type: functional
DNA gyrase = DNA gyrase (Staphylococcus aureus, UniProt P0A0K8+P20831); test: Inhibition of wild type Staphylococcus aureus DNA gyrase subunit 2GyrA/2GyrB assessed as pBR322 supercoiling after 1 hr; assay type: protein-complex assay
[1] = Inhibition of wild type Escherichia coli ATCC 25922 DNA gyrase subunit 2GyrA/2GyrB assessed as pBR322 supercoiling after 1 hr
Staphylococcus aureus [2] = test: Antibacterial activity against wild type Staphylococcus aureus ATCC 29213 assessed as growth inhibition by broth microdilution method; assay type: functional
hERG (KCNH2) = hERG (KCNH2) (Homo sapiens, UniProt Q12809); test: Inhibition of human ERG expressed in CHO cells at 10 uM after 3 mins by patch clamp assay relative to control; assay type: cell-based; conditions: CHO cells that express human ERG
Topoisomerase IV = Topoisomerase IV (Staphylococcus aureus, UniProt P0C1S7+P0C1U9); test: Inhibition of wild type Staphylococcus aureus ATCC 29213 topoisomerase-4 subunit 2GrlA/2GrlB assessed as pBR322 relaxation after 1 hr; assay type: protein-complex assay
Escherichia coli = test: Antibacterial activity against wild type Escherichia coli ATCC 25922 assessed as growth inhibition by broth microdilution method; assay type: functional
Staphylococcus aureus [3] = test: Antibacterial activity against NXL-101-resistant Staphylococcus aureus A-234 harboring DNA gyrase subunit A D83N mutant assessed as growth inhibition by broth microdilution method; assay type: functional
Pseudomonas aeruginosa = test: Antibacterial activity against wild type Pseudomonas aeruginosa ATCC 27853 assessed as growth inhibition by broth microdilution method; assay type: functional
[4] = Inhibition of wild type Escherichia coli ATCC 25922 DNA topoisomerase-4 subunit 2ParC/2ParE assessed as pBR322 relaxation after 1 hr

Row | SMILES | MIC (Streptococcus pneumoniae) [µg/mL] | IC50 (DNA gyrase) [nM] | IC50 [1] [nM] | MIC (Staphylococcus aureus [2]) [µg/mL] | inhibition at 0.05 h, 10 µM (hERG (KCNH2)) [%] | IC50 (Topoisomerase IV) [µM] | MIC (Escherichia coli) [µg/mL] | MIC (Staphylococcus aureus [3]) [µg/mL] | MIC (Pseudomonas aeruginosa) [µg/mL] | IC50 [4] [nM]
1 | COc1ccc2nccc([C@@H](O)[C@H](O)[C@@H]3CC[C@@H](NCc4cc5c(cn4)OCCO5)CO3)c2n1 | 0.5 | 30 | 8000 | 0.06 | 27 | 8 | 8 | 4 | > 8 | 125
2 | COc1ccc2nccc([C@H](O)[C@@H](O)[C@H]3CC[C@H](NCc4ccc5c(n4)NC(=O)CS5)CO3)c2n1 | 0.03 | 30 | 500 | 0.03 | 70 | 8 | 1 | 0.5 | > 8 | 125
3 | COc1cnc2ccc(F)c([C@@H](O)[C@H](O)[C@@H]3CC[C@@H](NCc4cc5c(cn4)OCCS5)CO3)c2n1 | 0.03 | 30 | 8000 | ≤ 0.015 | 33 | 8 | 8 | 2 | > 8 | 125
4 | COc1cnc2ccc(F)c([C@@H](O)[C@H](O)[C@@H]3CC[C@@H](NCc4cc5c(nn4)OCCS5)CO3)c2n1 | 0.125 | 125 | 8000 | ≤ 0.015 | 0 | > 8 | > 8 | 8 | > 8 | 2000
5 | COc1ccc2nccc([C@@H](O)[C@H](O)[C@@H]3CC[C@@H](NCc4ccc5c(n4)NC(=O)CS5)CO3)c2n1 | 0.06 | < 30 | 500 | 0.03 | 36 | 0.5 | 1 | 0.5 | > 8 | 125
6 | COc1cnc2cccc([C@@H](O)[C@H](O)[C@@H]3CC[C@@H](NCc4ccc5c(n4)NC(=O)CS5)CO3)c2c1 | 0.25 | 125 | 2000 | 0.25 | 17 | 0.5 | 8 | > 8 | > 8 | 125
7 | COc1ccc2ncc(F)c([C@@H](O)[C@H](O)[C@@H]3CC[C@@H](NCc4cc5c(nn4)OCCO5)CO3)c2n1 | 0.5 | 125 | > 8000 | 0.125 | 7 | > 8 | > 8 | > 8 | > 8 | 2000
8 | COc1ccc2nccc(OC[C@@H]3CC[C@@H](NCc4ccc5c(n4)NC(=O)CS5)CO3)c2n1 | 0.25 | 125 | 2000 | 0.5 | 70 | 8 | 4 | 4 | > 8 | 
9 | COc1cnc2ccc(F)c([C@@H](O)[C@H](O)[C@@H]3CC[C@@H](NCc4ccc5c(n4)NC(=O)CS5)CO3)c2n1 | 0.5 | 30 | 500 | 0.06 | 44 | 2 | 4 | 1 | > 8 | 125
10 | COc1ccc2cccc([C@@H](O)[C@H](O)[C@@H]3CC[C@@H](NCc4ccc5c(n4)NC(=O)CS5)CO3)c2n1 | 0.06 | 30 | 125 | 0.03 | 72 | 0.5 | 2 | 0.25 | > 8 | 125
11 | COc1ccc2nccc(OC[C@@H]3CC[C@@H](NCc4cc5c(cn4)OCCO5)CO3)c2n1 | 4 | 500 | > 8000 | 2 | 19 | > 8 | > 8 | > 8 | > 8 | 
12 | COc1ccc2ncc(F)c([C@@H](O)[C@H](O)[C@@H]3CC[C@@H](NCc4cc5c(cn4)OCCO5)CO3)c2n1 | 0.03 | 30 | 8000 | 0.03 | 10 | 8 | > 8 | 2 | > 8 | 125
13 | COc1cnc2ccc(F)c([C@@H](O)[C@H](O)[C@@H]3CC[C@@H](NCc4cc5c(cn4)OCCO5)CO3)c2n1 | 0.125 | 125 | 8000 | ≤ 0.015 | 11 | 8 | 8 | 8 | > 8 | 500
14 | COc1ccc2nccc(C(O)C[C@@H]3CC[C@@H](NCc4ccc5c(n4)NC(=O)CS5)CO3)c2n1 (mixture of isomers) | 0.03 | < 30 | 500 | 0.03 | 99 | > 8 | 1 | 0.5 | > 8 | < 30
15 | COc1ccc2nccc(CC[C@@H]3CC[C@@H](NCc4cc5c(cn4)OCCO5)CO3)c2n1 | 0.5 | < 30 | 8000 | 0.06 | 82 | > 8 | 8 | 4 | > 8 | 125
16 | COc1ccc2ncc(F)c([C@@H](O)[C@H](O)[C@@H]3CC[C@@H](NCc4ccc5c(n4)NC(=O)CS5)CO3)c2c1 | 0.25 | 125 | 2000 | 0.25 | 15 | 8 | 4 | > 8 | > 8 | 125
17 | COc1ccc2nccc(NC(=O)[C@@H]3CC[C@@H](NCc4ccc5c(n4)NC(=O)CS5)CO3)c2n1 | 0.5 | 125 | 500 | 0.25 | 99 | 2 | > 8 | > 8 | > 8 | 
18 | COc1cc(F)c2nccc([C@@H](O)[C@H](O)[C@@H]3CC[C@@H](NCc4ccc5c(n4)NC(=O)CS5)CO3)c2c1 | 0.25 | 125 | 2000 | 0.03 | 20 | 8 | 4 | 4 | > 8 | 125
19 | COc1ccc2nccc(/C=C/[C@@H]3CC[C@@H](NCc4cc5c(cn4)OCCO5)CO3)c2n1 | 1 | 125 | > 8000 | 0.25 | 88 | > 8 | > 8 | > 8 | > 8 | 
20 | COc1ccc2nccc([C@@H](O)[C@H](O)[C@@H]3CC[C@@H](NCc4ccc5c(n4)NC(=O)CS5)CO3)c2c1 | 0.25 | 250 | 2000 | 0.25 | 24 | 8 | 4 | > 8 | > 8 | 125
21 | COc1ccc2nccc([C@H](O)[C@@H](O)[C@@H]3CC[C@@H](NCc4ccc5c(n4)NC(=O)CS5)CO3)c2n1 | 1 | 500 | 8000 | 1 | 93 | > 8 | > 8 | > 8 | > 8 | 125
22 | COc1ccc2nccc(/C=C/[C@@H]3CC[C@@H](NCc4ccc5c(n4)NC(=O)CS5)CO3)c2n1 | 1 | 125 | 500 | 0.125 | 94 | 2 | 4 | 4 | > 8 | 30
23 | COc1ccc2ncc(F)c([C@@H](O)[C@H](O)[C@@H]3CC[C@@H](NCc4cc5c(nn4)OCCS5)CO3)c2n1 | 0.06 | 125 | 8000 | ≤ 0.015 | 3 | 8 | > 8 | 8 | > 8 | 500
24 | COc1ccc2nccc(NC(=O)[C@@H]3CC[C@@H](NCc4cc5c(cn4)OCCO5)CO3)c2n1 | 0.25 | 125 | > 8000 | 0.125 | 71 | > 8 | > 8 | > 8 | > 8 | 
25 | COc1ccc2nccc(C(O)C[C@@H]3CC[C@@H](NCc4cc5c(cn4)OCCO5)CO3)c2n1 (mixture of isomers) | 0.125 | 125 | > 8000 | 0.03 | 66 | > 8 | > 8 | > 8 | > 8 | 
